Measurements from patent US5679671A, “Amino acid derivative” (Eisai Co., Ltd., priority 1993, dated 1997).

Tests used:
ACE [1] = biological target: T1, ACE (Rattus norvegicus, UniProt P47820); experiment: ACE inhibition activity using rat lung (Experiment B-2); assay type: biochemical; details: rat lung membrane fraction, borate buffer
T1 construct: membrane fraction prepared from rat lung; from tissue; host or cells: rat lung, membrane fraction (method of Wu-Wong et al.)
T1 sequence (P47820 36-1313): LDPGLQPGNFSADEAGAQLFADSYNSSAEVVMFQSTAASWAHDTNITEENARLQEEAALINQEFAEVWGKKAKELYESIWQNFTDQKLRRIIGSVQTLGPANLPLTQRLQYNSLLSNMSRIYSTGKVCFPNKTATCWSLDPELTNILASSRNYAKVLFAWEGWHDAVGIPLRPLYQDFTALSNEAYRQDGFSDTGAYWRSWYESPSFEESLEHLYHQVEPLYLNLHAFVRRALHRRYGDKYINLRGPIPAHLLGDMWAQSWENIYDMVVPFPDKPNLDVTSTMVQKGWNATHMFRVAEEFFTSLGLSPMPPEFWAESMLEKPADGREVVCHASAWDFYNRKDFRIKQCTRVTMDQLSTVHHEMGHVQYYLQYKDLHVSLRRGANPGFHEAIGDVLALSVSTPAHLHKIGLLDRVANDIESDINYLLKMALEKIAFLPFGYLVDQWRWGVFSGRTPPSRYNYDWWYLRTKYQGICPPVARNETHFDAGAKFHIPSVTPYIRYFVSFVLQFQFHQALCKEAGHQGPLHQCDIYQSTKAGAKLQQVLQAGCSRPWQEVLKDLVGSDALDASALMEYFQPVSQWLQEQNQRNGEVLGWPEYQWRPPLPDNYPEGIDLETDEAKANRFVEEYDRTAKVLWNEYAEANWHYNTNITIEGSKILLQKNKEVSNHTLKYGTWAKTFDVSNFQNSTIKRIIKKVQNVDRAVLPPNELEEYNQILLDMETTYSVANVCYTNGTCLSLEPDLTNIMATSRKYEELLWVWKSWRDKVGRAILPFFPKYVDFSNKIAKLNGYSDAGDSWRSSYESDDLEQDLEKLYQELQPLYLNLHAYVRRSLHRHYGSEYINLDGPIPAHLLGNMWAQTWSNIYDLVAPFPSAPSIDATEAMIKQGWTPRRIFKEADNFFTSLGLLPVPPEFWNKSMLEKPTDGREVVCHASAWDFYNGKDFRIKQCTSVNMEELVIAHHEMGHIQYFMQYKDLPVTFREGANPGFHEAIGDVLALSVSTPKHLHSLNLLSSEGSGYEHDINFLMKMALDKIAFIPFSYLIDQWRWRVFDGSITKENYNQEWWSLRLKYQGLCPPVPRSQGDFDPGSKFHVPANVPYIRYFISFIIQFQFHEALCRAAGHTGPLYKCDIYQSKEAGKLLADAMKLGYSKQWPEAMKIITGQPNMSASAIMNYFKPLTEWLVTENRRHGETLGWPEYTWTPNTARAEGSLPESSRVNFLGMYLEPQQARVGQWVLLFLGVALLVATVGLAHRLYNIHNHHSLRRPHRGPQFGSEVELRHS
Experimental: The ACE inhibition activity was determined by using a membrane fraction prepared from rat lung in accordance with the method of Wu-Wong et al. (Characterization of Endthelin Converting Enzyme in Rat Lung., Junshyum R. Wu-Wong, Gerald, P. Budzik, Edward M. Devine and Terry J. Opgenorth, Biochem. Biophys. Res. Commun., 1990, 171, 1291-1296.).
The ACE activity was determined with the use of a modification (modified to a borate buffer, p11 8.3) of the method of Cushman and Cheung (Spectrophotometric Assay and Properties of the Angiotensin-Converting Enzyme of Rabbit Lung., Cushman, D. W. and Cheung H. S., 1971, 20, […].).
In the presence of ACE, the hippurate liberated from hippuryl-histidine-leucine (Hippuryl-His-Leu (PeptideInstitute Inc., Japan)) was extracted with ethyl acetate and then the absorbance was measured at a wavelength of 228 nm.
(§1) With respect to the ACE inhibition activity, the inhibitor was added to the reaction system as described above in such a manner as to give the final concentrations of 1, 3, 10, 30, 100, 300 and 1000 nM, an inhibition curve was prepared, and then the concentration at which 50% inhibition was achieved was taken as IC50.

NEP [2] = biological target: T2, NEP (Rattus norvegicus, UniProt P07861); experiment: NEP inhibition activity using rat renal cortex (Experiment B-1); assay type: biochemical; set-up: membrane fraction prepared from rat renal cortex; from tissue; host or cells: rat renal cortex, membrane fraction (method of Booth and Kenny); details: rat renal cortex membrane fraction
T2 sequence (P07861 1-750): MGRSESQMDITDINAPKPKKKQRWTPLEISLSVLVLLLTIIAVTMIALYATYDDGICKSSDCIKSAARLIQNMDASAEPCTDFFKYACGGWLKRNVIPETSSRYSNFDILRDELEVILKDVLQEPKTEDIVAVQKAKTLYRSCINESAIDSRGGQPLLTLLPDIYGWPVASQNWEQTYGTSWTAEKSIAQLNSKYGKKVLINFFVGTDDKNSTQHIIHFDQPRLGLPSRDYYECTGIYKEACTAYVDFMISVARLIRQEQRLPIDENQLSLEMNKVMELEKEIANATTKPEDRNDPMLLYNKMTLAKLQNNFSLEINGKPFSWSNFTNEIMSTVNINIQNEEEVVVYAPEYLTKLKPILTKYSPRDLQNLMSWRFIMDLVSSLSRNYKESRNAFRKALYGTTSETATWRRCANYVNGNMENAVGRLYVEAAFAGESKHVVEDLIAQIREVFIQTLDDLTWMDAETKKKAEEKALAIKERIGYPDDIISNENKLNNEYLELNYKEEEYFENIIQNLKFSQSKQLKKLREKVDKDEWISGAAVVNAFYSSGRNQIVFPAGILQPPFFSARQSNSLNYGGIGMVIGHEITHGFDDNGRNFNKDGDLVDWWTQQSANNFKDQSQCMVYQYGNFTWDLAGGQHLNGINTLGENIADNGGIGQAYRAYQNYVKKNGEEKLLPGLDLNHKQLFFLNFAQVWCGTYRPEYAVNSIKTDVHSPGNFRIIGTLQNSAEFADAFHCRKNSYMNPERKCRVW
Experimental: The NEP activity was determined by using a membrane fraction prepared from rat renal cortex in accordance with the method of Booth and Kenay (A Rapid Metod for the Purificaton of Microvilli from Rabbit Kidney., Andrew G. Booth and A. John Kenny, Biochem j., 1974, 142, 575-581.).
The NEP activity was determined by the following manner in accordance with the method of Orlowsky and Wilk (Purification and Specificity of a Membrane-Bound Metalloendpeptldase from Bovine Pituitaries., Marian Orlowsky and Shrwin Wilk, Biochemistry, 1981, 20, 4942-4950.).
(§2) As a substrate, benzoyl-glycine-arginine-arginine-2-naphthylamide (benzoyl-Gly-Arg-Arg-2-naphthylamide (Nova Biochem, Switzerland)) was used. In the presence of an NEP enzyme preparation and excessive leucine aminopeptidase (sigma chemical Co., U.S.A.), the liberated naphthylamine was made to undergo color development with first garnet (Sigma chemical Co., U.S.A.), followed by the measurement of the absorbance at a wavelength of 540 nm.
as §1, with “NEP” for “ACE”

NEP [3] = biological target: T2, NEP; experiment: NEP inhibition activity (Experiment E-1); assay type: biochemical; set-up: membrane fraction prepared from rat renal cortex; from tissue; host or cells: rat renal cortex, membrane fraction (method of Booth and Kenny); details: rat renal cortex membrane fraction
Experimental: As a source of the enzyme NEP, a membrane fraction prepared from rat renal cortex in accordance with the method of Booth and Kenny (A Rapid Method for the Purification of Microvilli from Rabbit Kidney., Andrew G. Booth and A. John Kenny, Biochem. j., 1974, 142,575-581.) was employed. The NEP activity was determined in accordance with the method of Orlowsky and Wilk (Purification and Specificity of a Membrane-Bound Metalloendpeptidase from Bovine Pituitaries., Marian Orlowsky and Shrwin Wilk, Biochemistry, 1981, 20, 4942-4950.). Now the procedure will be briefly described.
as §2, with “benzoyl-glycyl-arginyl-arginyl-2-naphthylamide (benzoyl-Gly-Arg-Arg-2 naphthylamide” for “benzoyl-glycine-arginine-arginine-2-naphthylamide (benzoyl-Gly-Arg-Arg-2-naphthylamide”
(§3) To determine the NEP inhibition activity and the ACE inhibition activity, the inhibitor was added to the assay systems of both enzyme activities as described above in such a manner as to give the final concentrations of 1, 3, 10, 30, 100, […] and 1000 nM and inhibition curves were prepared. Then the concentration at which 50% inhibition was achieved was taken as IC50.

ACE [4] = biological target: T1, ACE; experiment: ACE inhibition activity (Experiment E-1); assay type: biochemical; details: rat lung membrane fraction, pH 8.3
Experimental: As a source of the enzyme ACE, a membrane fraction prepared from rat lung in accordance with the method of Wu-Wong et al. (Characterization of Endthelin Converting Enzyme in Rat Lung., Jinshyum R. Wu-Wong, Gerald, P. Budzik, Edward M. Devine and Terry J. Opgenorth, Biochem. Biophys. Res. Commun., 1990, 171, 1291-1296.) was used. The ACE activity was determined with the use of a modification (modified to a borate buffer pH 8.3) of the method of Cushman and Cheung (Spectrophotometric Assay and Properties of the Angiotensin-Converting Enzyme of Rabbit Lung., Cushman D. W. and Cheung H. S., 1971, 20, 1637-1648.). Now the procedure will be briefly described.
In the presence of ACE, the hippurate liberated from hippuryl-histidyl-leucine (Hippuryl-His-Leu (PeptideInstitute Inc., Japan)) was extracted with ethyl acetate and then the absorbance was measured at a wavelength of 228 nm.
as §3

in vivo = details: rat, in vivo; for bioavailability: po
Description: Then changes in the blood level of each medicament were monitored with the lapse of time by using liquid chromatography.

Row | IC50 (ACE [1]) | IC50 (NEP [2]) | IC50 (NEP [3]) | IC50 (ACE [4]) | bioavailability (in vivo; 10 mg/kg) | bioavailability (in vivo; 30 mg/kg) | Compound | oral absorbability (in vivo)
1 | 60 nM | 55 nM | – | – | – | – | CCOC(=O)C1CCCC2c3sccc3CC(NC(=O)[C@H](Cc3ccccc3)SC(C)=O)C(=O)N12 (single isomer, unassigned) [Example B-7] | –
2 | – | – | 28 nM | 10 nM | 18.8% | 24.6% | O=C(N[C@H]1Cc2ccc(-c3ccccc3)cc2[C@H]2CCC[C@@H](C(=O)O)N2C1=O)[C@@H](S)Cc1ccccc1 [Example E-6, [4S-[4α,7α(R*),12bβ]]-7-[(S)-2-Mercapto-3-phenylpropionylamino]-6-oxo-11-phenyl-1,2,3,4,6,7,8,12b-octahydropyrido[2,1-a][2]benzazepine-4-carboxylic acid] | superior in oral absorbability to the comparative compound E-1
3 | 16 nM | 8.6 nM | – | – | – | – | O=C(N[C@H]1Cc2sccc2[C@H]2CCC[C@@H](C(=O)O)N2C1=O)[C@@H](S)Cc1ccccc1 [Example B-3, [5S-[5α,8α(R*),11αβ]]-5-[[(S)-2-Mercapto-1-oxo-3-phenylpropyl]amino]-6-oxo-4,5,6,8,9,10,11,11a-octahydropyrido[1,2-a]thieno[3,2c]azepine-8-carboxylic acid] | –
4 | 90 nM | 72 nM | – | – | – | – | O=C(O)C1CCCC2c3sccc3CC(NC(=O)[C@@H](S)Cc3ccccc3)C(=O)N12 (stereo partly drawn) [Example B-8, 5-[(S)-2-Mercapto-1-oxo-3-phenylpropyl]amino-6-oxo-4,5,6,8,9,10,11,11a-octahydro[1,2-a]thieno-[2,3-c]azepine-8-carboxylic acid] | –
